The values below are quoted from earlier work in PMC5548701, “Selective targeting of melanoma using N-(2-diethylaminoethyl) 4-[^18F]fluoroethoxy benzamide (4-[^18F]FEBZA): a novel PET imaging probe” (EJNMMI Research, 2017).

For one series, the system named is B16F1 tumor. The conditions noted are these: cited from earlier work; for intestinal uptake: mice bearing B16F melanoma tumor; for bone uptake: 2 h.
Details of series [1]: method as in PMID 27693672. The conditions noted are these: 60–70 min; cited from earlier work.

Regarding `CCN(CC)CCNC(=O)c1ccc([18F])cc1` [^18F-DAFBA, N-(2-diethylaminoethyl)-4-[18F]fluorobenzamide], in the series on B16F1 tumor (1 h), the intestinal uptake is 3.04 ± 0.24 %IA/g. Further, the bone uptake in the series with B16F1 tumor is 0.20 ± 0.06 %IA/g.
In the case of `CCN(CC)CCNC(=O)c1ccc(F)nc1` [MEL050], in the series with B16F1 tumor (1 h), the intestinal uptake is 2.1 ± 0.3 %IA/g and the “F-18 uptake in B16F1 tumor” value is 8.4 ± 1.5 %IA/g. The bone uptake with B16F1 tumor is on record as 0.58 ± 0.05 %IA/g. For the same compound, the “uptake in mouse brain from microPET imaging” value in series [1] was 1.38 ± 0.40 %IA/g.
